Data reported in US4072574A, “System for in vitro assay for mutagenicity and/or carcinogenicity of chemicals or other exogenous agents” (priority 1976, dated 1978).

Legend:
AMV DNA polymerase = assay: Fidelity of in vitro DNA synthesis (error frequency) with AMV DNA polymerase copying synthetic polynucleotide templates
Description: In this invention, the ability of carcinogens to decrease the fidelity of in vitro DNA synthesis will be used to screen for carcinogenic or mutagenic agents. The system uses synthetic polynucleotides of defined composition which may be copied in the test tubes with procaryotic, eucaryotic or viral DNA polymerases. The use of synthetic polynucleotides of defined composition allows the measurement of the simultaneous incorporation of the correct, complementary nucleotide and an incorrect, non-complementary nucleotide. The correct nucleotide is labeled with [α-^32 P] of low specific activity and the incorrect nucleotide is labeled with [^3 H] of high specific activity. Through this double labeled reaction it is possible to determine the simultaneous incorporation of both nucleotides and thus to determine an error frequency. The error frequency may be defined as the ratio of the incorrect/correct nucleotide incorporation. Agents which increase this error frequency may be scored as positive. […] Agents which score positive would be checked using different templates to underscore the positive results. In this system different polymerases will be used as well as different templates. One would expect that most carcinogens would change the fidelity of DNA synthesis with different polymerases as well as with different templates though this need not be the case.
Each assay will consist of a polymerase, a polynucleotide template that only contains one or two nucleotides, a complementary nucleotide and a non-complementary nucleotide as well as magnesium. Both of the nucleotides will be labeled by radioactive precursors and the ratio between the two is to be used for a measure of error frequency in the system. In instances where a template requires two complementary nucleotides, only one will be radioactively labeled.
Reactions (total volume 0.05 ml) which measured complementary nucleotide incorporation contained 50 mM Tris-HCL (pH 8.0), 20 mM KCl, 5 mM dithiothreitol, 5 mM MgCl2, 2μg BSA, […] [α-^32 P] -dTTP (60 dpm/pmole), 1μg poly (A).oligo (dT) (1:1.5 mass ratio), and 0.45 μg of AMV DNA polymerase. For simultaneous quantitation of complementary and non-complementary nucleotide incorporation each reaction was modified to contain 26μM [α-^32 P]dTTP (12 dpm/pmole) and 23μM [^3 H]-dCTP (50,000 dpm/pmole). […] Metals were added directly to the reaction mixture as aqueous solutions of chloride salts. All reactions were incubated for 60 min. at 37° C. Incorporation of radioactive nucleotides into an acid-insoluble and alkali-resistant product was determined by using the precipitation-solubilization procedure as described by Battula and Loeb. All experiments were performed in triplicate and the averages were determined.
In order to determine the effect of different metals on the accuracy of DNA replication, metal cations were added as chloride salts directly to the polymerase reaction. In these experiments, poly (A).oligo (dT) was the template-primer and the simultaneous incorporation of complementary nucleotide, [α-^32 P]-dTMP, and the non-complementery nucleotide, [^3 H]-dCMP, was determined.
The effect of metal salts on the fidelity of DNA synthesis was examined by testing each of the metal salts at a minimum of seven different concentrations.

[1] = known status of the compound; cited from earlier work
[2] = Table 1, template poly [d(A-T)], classes 1-3 not defined
[3] = 8 mM K2 HPO4, template in drawing 4
[4] = 16 mM K2 HPO4, template in drawing 4
[5] = 32 mM K2 HPO4, template in drawing 4
[6] = 40 mM K2 HPO4, template in drawing 4
[7] = Table 1, template poly (C).oligo (dG), classes 1-3 not defined
[8] = 4 mM KC2 H3 O2, template in drawing 5
[9] = 20 mM KC2 H3 O2, template in drawing 5
[10] = 40 mM KC2 H3 O2, template in drawing 5
[11] = 80 mM KC2 H3 O2, template in drawing 5
[12] = 4 mM added cation + Mg^2+ 5 mM, poly (A).oligo (dT)
[13] = 6 mM added cation + Mg^2+ 5 mM, poly (A).oligo (dT)
[14] = 10 mM added cation + Mg^2+ 5 mM, poly (A).oligo (dT)
[15] = 0.08 mM CrCl2, template in drawing 1
[16] = 0.16 mM CrCl2, template in drawing 1
[17] = 0.24 mM CrCl2, template in drawing 1
[18] = 0.64 mM CrCl2, template in drawing 1
[19] = 0.02 mM CuCl2, template in drawing 2
[20] = 0.04 mM CuCl2, template in drawing 2
[21] = 0.08 mM CuCl2, template in drawing 2
[22] = 0.12 mM CuCl2, template in drawing 2
[23] = 0.8 mM Ca(C2 H3 O2)2, template in drawing 3
[24] = 2.4 mM Ca(C2 H3 O2)2, template in drawing 3
[25] = 4.0 mM Ca(C2 H3 O2)2, template in drawing 3
[26] = 4.8 mM Ca(C2 H3 O2)2, template in drawing 3

## [Cl-].[Na+] [NaCl]
AMV DNA polymerase; [2]
  Class: 2
AMV DNA polymerase; template poly [d(A-T)]
  Metal Concentration which yielded the largest observed change in error rate: 120 mM

## [Cl-].[K+] [KCl, potassium chloride]
AMV DNA polymerase; 1 mM to 300 mM, poly (A).oligo (dT)
  effect on the fidelity of DNA synthesis (in words): did not alter the fidelity of DNA synthesis
AMV DNA polymerase; [2]
  Class: 2
AMV DNA polymerase; template poly [d(A-T)]
  Metal Concentration which yielded the largest observed change in error rate: 150 mM
[1]
  Carcinogen or Mutagen: -

## O=[N+]([O-])[O-].[Ag+] [AgNO3]
AMV DNA polymerase; [2]
  Class: 1
AMV DNA polymerase; template poly [d(A-T)]
  Metal Concentration which yielded the largest observed change in error rate: 0.03 mM
[1]
  Carcinogen or Mutagen: +

## [Na+].[OH-] [NaOH]
AMV DNA polymerase; [2]
  Class: 3
AMV DNA polymerase; template poly [d(A-T)]
  Metal Concentration which yielded the largest observed change in error rate: 10 mM
[1]
  Carcinogen or Mutagen: -

## Cn1c(=O)c2c(ncn2C)n(C)c1=O [caffeine]
AMV DNA polymerase; 0.1-20 mM, poly (A).oligo (dT)
  effect on the fidelity of DNA synthesis (in words): did not alter the fidelity of DNA synthesis

## O=P([O-])([O-])O.[K+].[K+] [K2 HPO4]
AMV DNA polymerase; [3]
  Complementary Deoxynucleotide Incorporation: 179 pmol
  Error Frequency: 1/814
  Non-complementary Deoxynucleotide Incorporation: 0.22 pmol
AMV DNA polymerase; [4]
  Complementary Deoxynucleotide Incorporation: 180 pmol
  Error Frequency: 1/783
  Non-complementary Deoxynucleotide Incorporation: 0.23 pmol
AMV DNA polymerase; [5]
  Complementary Deoxynucleotide Incorporation: 107 pmol
  Error Frequency: 1/823
  Non-complementary Deoxynucleotide Incorporation: 0.13 pmol
AMV DNA polymerase; [6]
  Complementary Deoxynucleotide Incorporation: 48 pmol
  Error Frequency: 1/960
  Non-complementary Deoxynucleotide Incorporation: 0.05 pmol
AMV DNA polymerase; [2]
  Class: 2
AMV DNA polymerase; Table 2, classes not defined
  Class: 2
AMV DNA polymerase; template poly [d(A-T)]
  Metal Concentration which yielded the largest observed change in error rate: 40 mM
[1]
  Carcinogen or Mutagen: -

## CC(=O)[O-].CC(=O)[O-].[Cu+2] [Cu(C2 H3 O2)2]
AMV DNA polymerase; [7]
  Class: 1
AMV DNA polymerase; template poly (C).oligo (dG)
  Metal Concentration which yielded the largest observed change in error rate: 0.12 mM
[1]
  Carcinogen or Mutagen: ±

## CC(=O)[O-].[K+] [KC2 H2 O2]
AMV DNA polymerase; [8]
  Complementary Deoxynucleotide Incorporation: 484 pmol
  Error Frequency: 1/733
  Non-complementary Deoxynucleotide Incorporation: 0.66 pmol
AMV DNA polymerase; [9]
  Complementary Deoxynucleotide Incorporation: 423 pmol
  Error Frequency: 1/755
  Non-complementary Deoxynucleotide Incorporation: 0.56 pmol
AMV DNA polymerase; [10]
  Complementary Deoxynucleotide Incorporation: 378 pmol
  Error Frequency: 1/741
  Non-complementary Deoxynucleotide Incorporation: 0.51 pmol
AMV DNA polymerase; [11]
  Complementary Deoxynucleotide Incorporation: 379 pmol
  Error Frequency: 1/743
  Non-complementary Deoxynucleotide Incorporation: 0.51 pmol
AMV DNA polymerase; [7]
  Class: 3
AMV DNA polymerase; Table 2, classes not defined
  Class: 3
AMV DNA polymerase; template poly (C).oligo (dG)
  Metal Concentration which yielded the largest observed change in error rate: 100 mM
[1]
  Carcinogen or Mutagen: -

## [Cl][Pb][Cl] [PbCl2]
AMV DNA polymerase; [7]
  Class: 1
AMV DNA polymerase; template poly (C).oligo (dG)
  Metal Concentration which yielded the largest observed change in error rate: 4 mM
[1]
  Carcinogen or Mutagen: +

## CC(=O)[O-].CC(=O)[O-].[Cd+2] [Cd(C2 H3 O2)2]
AMV DNA polymerase; [7]
  Class: 1
AMV DNA polymerase; template poly (C).oligo (dG)
  Metal Concentration which yielded the largest observed change in error rate: 0.24 mM
[1]
  Carcinogen or Mutagen: +

## [Cl-].[Cl-].[Sr+2] [SrCl2]
AMV DNA polymerase; [12]
  Complementary Nucleotide (pmoles dTMP): 798 pmol
  Non-Complementary Nucleotide (pmoles dCMP): 0.86 pmol
AMV DNA polymerase; 4 mM added cation + Mg^2+ 5 mM, poly (A).oligo (dT), dCMP/dTMP
  Error Frequency: 1/927
AMV DNA polymerase; [13]
  Complementary Nucleotide (pmoles dTMP): 936 pmol
  Non-Complementary Nucleotide (pmoles dCMP): 0.96 pmol
AMV DNA polymerase; 6 mM added cation + Mg^2+ 5 mM, poly (A).oligo (dT), dCMP/dTMP
  Error Frequency: 1/975
AMV DNA polymerase; [14]
  Complementary Nucleotide (pmoles dTMP): 845 pmol
  Non-Complementary Nucleotide (pmoles dCMP): 0.86 pmol
AMV DNA polymerase; 10 mM added cation + Mg^2+ 5 mM, poly (A).oligo (dT), dCMP/dTMP
  Error Frequency: 1/982
AMV DNA polymerase; Table 1, template poly (A).oligo (dT), classes 1-3 not defined
  Class: 3
AMV DNA polymerase; poly (A).oligo (dT), dTMP complementary, dCMP non-complementary
  effect on error frequency (in words): did not affect either the incorporation of the complementary or non-complementary nucleotides
AMV DNA polymerase; template poly (A).oligo (dT)
  Metal Concentration which yielded the largest observed change in error rate: 10 mM
[1]
  Carcinogen or Mutagen: -

## [Cl][Cr][Cl] [CrCl2]
AMV DNA polymerase; [15]
  Complementary Deoxynucleotide Incorporation: 133 pmol
  Error Frequency: 1/578
  Non-complementary Deoxynucleotide Incorporation: 0.23 pmol
AMV DNA polymerase; [16]
  Complementary Deoxynucleotide Incorporation: 169 pmol
  Error Frequency: 1/528
  Non-complementary Deoxynucleotide Incorporation: 0.32 pmol
AMV DNA polymerase; [17]
  Complementary Deoxynucleotide Incorporation: 127 pmol
  Error Frequency: 1/363
  Non-complementary Deoxynucleotide Incorporation: 0.35 pmol
AMV DNA polymerase; [18]
  Complementary Deoxynucleotide Incorporation: 71 pmol
  Error Frequency: 1/192
  Non-complementary Deoxynucleotide Incorporation: 0.37 pmol
AMV DNA polymerase; [2]
  Class: 1
AMV DNA polymerase; template poly [d(A-T)]
  Metal Concentration which yielded the largest observed change in error rate: 0.64 mM
[1]
  Carcinogen or Mutagen: +

## [O]=[Cr](=[O])=[O] [CrO3]
AMV DNA polymerase; [2]
  Class: 1
AMV DNA polymerase; template poly [d(A-T)]
  Metal Concentration which yielded the largest observed change in error rate: 16 mM
[1]
  Carcinogen or Mutagen: +

## [Cl][Cu][Cl] [CuCl2]
AMV DNA polymerase; [19]
  Complementary Deoxynucleotide Incorporation: 385 pmol
  Error Frequency: 1/875
  Non-complementary Deoxynucleotide Incorporation: 0.44 pmol
AMV DNA polymerase; [20]
  Complementary Deoxynucleotide Incorporation: 130 pmol
  Error Frequency: 1/722
  Non-complementary Deoxynucleotide Incorporation: 0.18 pmol
AMV DNA polymerase; [21]
  Complementary Deoxynucleotide Incorporation: 54 pmol
  Error Frequency: 1/540
  Non-complementary Deoxynucleotide Incorporation: 0.10 pmol
AMV DNA polymerase; [22]
  Complementary Deoxynucleotide Incorporation: 36 pmol
  Error Frequency: 1/450
  Non-complementary Deoxynucleotide Incorporation: 0.08 pmol
AMV DNA polymerase; [7]
  Class: 1
AMV DNA polymerase; template poly (C).oligo (dG)
  Metal Concentration which yielded the largest observed change in error rate: 0.08 mM
[1]
  Carcinogen or Mutagen: ±

## N.N.O=S(=O)(O)O [(NH4)2 SO4]
AMV DNA polymerase; [7]
  Class: 2
AMV DNA polymerase; template poly (C).oligo (dG)
  Metal Concentration which yielded the largest observed change in error rate: 120 mM
[1]
  Carcinogen or Mutagen: -

## [Cl][Mn][Cl] [MnCl2]
AMV DNA polymerase; [7]
  Class: 1
AMV DNA polymerase; template poly (C).oligo (dG)
  Metal Concentration which yielded the largest observed change in error rate: 10 mM
AMV DNA polymerase; various templates
  effect on the fidelity of DNA synthesis (in words): alter the fidelity

## NCCCCNCCCN [spermidine]
AMV DNA polymerase; 0.1 to 5 mM, poly (A).oligo (dT)
  effect on the fidelity of DNA synthesis (in words): did not alter the fidelity of DNA synthesis

## CC(=O)O [Ca(C2 H3 O2)2]
AMV DNA polymerase; [23]
  Complementary Deoxynucleotide Incorporation: 217 pmol
  Error Frequency: 1/986
  Non-complementary Deoxynucleotide Incorporation: 0.22 pmol
AMV DNA polymerase; [24]
  Complementary Deoxynucleotide Incorporation: 78 pmol
  Error Frequency: 1/975
  Non-complementary Deoxynucleotide Incorporation: 0.08 pmol
AMV DNA polymerase; [25]
  Complementary Deoxynucleotide Incorporation: 39 pmol
  Error Frequency: 1/975
  Non-complementary Deoxynucleotide Incorporation: 0.04 pmol
AMV DNA polymerase; [26]
  Complementary Deoxynucleotide Incorporation: 17 pmol
  Error Frequency: 1/850
  Non-complementary Deoxynucleotide Incorporation: 0.02 pmol
AMV DNA polymerase; Table 2, classes not defined
  Class: 2

## CC1=C(/C=C/C(C)=C/C=C/C(C)=C/CO)C(C)(C)CCC1 [retinol]
AMV DNA polymerase; 0.2-2μg, poly (A).oligo (dT)
  effect on the fidelity of DNA synthesis (in words): did not alter the fidelity of DNA synthesis
